≈ marks a conversion by molar mass, not a printed value.

Dual specificity mitogen-activated protein kinase kinase 1 (Homo sapiens), sequence (Q02750 whole entry): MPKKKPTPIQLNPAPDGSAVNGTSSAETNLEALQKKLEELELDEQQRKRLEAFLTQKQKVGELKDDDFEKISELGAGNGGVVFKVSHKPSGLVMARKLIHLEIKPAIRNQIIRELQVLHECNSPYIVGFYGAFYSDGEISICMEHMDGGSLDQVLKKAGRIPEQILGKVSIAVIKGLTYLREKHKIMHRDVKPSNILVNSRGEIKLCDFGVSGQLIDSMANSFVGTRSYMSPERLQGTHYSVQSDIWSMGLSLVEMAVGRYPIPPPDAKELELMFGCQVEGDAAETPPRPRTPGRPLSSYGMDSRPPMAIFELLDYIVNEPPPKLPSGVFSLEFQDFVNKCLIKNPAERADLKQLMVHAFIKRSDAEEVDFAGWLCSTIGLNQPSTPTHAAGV
Protein kinase C theta type (Homo sapiens), sequence (Q04759 whole entry, looked up): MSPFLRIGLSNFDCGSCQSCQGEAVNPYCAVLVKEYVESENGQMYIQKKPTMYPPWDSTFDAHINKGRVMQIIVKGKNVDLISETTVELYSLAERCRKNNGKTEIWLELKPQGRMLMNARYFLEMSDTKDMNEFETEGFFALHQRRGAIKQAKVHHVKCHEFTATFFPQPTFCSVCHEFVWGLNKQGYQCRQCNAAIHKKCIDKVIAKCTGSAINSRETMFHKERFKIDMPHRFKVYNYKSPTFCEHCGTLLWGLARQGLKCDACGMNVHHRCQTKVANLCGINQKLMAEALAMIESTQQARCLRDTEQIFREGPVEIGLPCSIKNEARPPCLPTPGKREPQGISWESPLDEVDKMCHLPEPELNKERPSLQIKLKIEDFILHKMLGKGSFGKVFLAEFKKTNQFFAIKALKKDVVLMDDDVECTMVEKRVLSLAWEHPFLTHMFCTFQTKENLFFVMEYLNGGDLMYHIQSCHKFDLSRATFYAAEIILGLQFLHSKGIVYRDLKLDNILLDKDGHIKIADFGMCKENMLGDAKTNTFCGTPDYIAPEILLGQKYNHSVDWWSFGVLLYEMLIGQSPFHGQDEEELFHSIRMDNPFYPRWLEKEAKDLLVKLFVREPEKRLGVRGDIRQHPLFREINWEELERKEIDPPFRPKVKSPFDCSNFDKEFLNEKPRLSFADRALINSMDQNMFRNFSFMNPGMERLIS
Angiopoietin-1 receptor (Homo sapiens), sequence (Q02763 whole entry): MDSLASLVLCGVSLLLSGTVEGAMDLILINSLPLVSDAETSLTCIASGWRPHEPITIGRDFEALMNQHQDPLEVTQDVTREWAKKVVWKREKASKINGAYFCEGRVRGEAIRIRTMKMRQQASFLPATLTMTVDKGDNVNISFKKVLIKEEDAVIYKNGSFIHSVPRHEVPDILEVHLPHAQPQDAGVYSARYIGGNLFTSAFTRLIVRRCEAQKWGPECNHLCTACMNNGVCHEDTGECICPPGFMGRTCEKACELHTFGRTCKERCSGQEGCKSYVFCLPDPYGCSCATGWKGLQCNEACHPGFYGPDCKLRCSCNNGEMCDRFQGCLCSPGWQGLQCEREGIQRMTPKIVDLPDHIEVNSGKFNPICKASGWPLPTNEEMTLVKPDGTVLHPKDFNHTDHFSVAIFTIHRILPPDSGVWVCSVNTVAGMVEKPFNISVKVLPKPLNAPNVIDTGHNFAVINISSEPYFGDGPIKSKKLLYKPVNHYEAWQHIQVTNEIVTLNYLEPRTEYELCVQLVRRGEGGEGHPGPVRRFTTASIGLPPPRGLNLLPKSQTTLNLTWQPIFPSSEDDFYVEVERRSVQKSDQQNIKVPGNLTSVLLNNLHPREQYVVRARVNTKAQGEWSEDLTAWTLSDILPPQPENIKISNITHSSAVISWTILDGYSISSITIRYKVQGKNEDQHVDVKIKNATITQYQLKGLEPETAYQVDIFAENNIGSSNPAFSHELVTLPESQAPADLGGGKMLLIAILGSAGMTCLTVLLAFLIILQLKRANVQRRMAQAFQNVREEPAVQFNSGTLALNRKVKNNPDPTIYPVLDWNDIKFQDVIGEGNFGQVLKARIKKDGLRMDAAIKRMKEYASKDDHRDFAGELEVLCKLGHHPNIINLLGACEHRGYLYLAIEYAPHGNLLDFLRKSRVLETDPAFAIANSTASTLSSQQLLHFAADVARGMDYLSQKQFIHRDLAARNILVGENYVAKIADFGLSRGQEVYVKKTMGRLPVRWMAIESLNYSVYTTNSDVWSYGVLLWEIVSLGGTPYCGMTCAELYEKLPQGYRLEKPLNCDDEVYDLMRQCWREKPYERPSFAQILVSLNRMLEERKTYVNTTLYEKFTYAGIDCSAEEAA

The first data set deals with Platelet-derived growth factor receptor beta (Homo sapiens) (UniProt P09619). The experiment in a line: Inhibition of PDGFRB (unknown origin) at 500 nM.
Platelet-derived growth factor receptor beta (Homo sapiens), sequence (P09619 whole entry): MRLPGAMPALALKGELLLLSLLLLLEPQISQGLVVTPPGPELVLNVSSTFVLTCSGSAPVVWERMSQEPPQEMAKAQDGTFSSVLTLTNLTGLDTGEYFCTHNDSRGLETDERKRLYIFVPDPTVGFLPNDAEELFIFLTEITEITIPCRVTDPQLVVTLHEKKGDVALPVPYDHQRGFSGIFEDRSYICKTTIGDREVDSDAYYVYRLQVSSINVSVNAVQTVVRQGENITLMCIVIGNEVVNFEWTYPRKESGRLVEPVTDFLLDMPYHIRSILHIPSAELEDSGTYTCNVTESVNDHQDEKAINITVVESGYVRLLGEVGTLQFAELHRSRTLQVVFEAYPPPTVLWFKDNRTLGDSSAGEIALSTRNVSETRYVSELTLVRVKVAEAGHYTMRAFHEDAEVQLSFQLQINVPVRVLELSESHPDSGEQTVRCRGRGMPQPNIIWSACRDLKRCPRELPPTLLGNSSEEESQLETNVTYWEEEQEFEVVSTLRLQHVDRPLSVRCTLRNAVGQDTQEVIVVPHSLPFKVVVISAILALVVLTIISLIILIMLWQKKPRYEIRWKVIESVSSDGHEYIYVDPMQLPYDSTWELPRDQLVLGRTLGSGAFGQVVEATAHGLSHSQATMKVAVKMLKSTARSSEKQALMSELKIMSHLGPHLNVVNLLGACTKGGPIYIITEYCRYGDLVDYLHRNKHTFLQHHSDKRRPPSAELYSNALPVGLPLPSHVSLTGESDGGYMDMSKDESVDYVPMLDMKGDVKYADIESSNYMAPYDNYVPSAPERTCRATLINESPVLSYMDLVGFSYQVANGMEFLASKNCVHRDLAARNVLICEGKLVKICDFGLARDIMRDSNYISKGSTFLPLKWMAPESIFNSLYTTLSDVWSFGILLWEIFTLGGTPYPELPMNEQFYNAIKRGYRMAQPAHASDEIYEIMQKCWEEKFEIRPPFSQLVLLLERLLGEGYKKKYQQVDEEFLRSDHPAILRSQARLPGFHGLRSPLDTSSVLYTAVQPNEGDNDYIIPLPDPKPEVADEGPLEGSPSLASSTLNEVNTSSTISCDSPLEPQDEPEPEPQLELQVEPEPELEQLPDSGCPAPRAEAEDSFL
Conditions: not given
As to `CN(C)CCNC(=O)c1ccc(-c2cc3c(N[C@H](CO)c4ccccc4)ncnc3s2)cc1`, the inhibition – broadly, the change of the read-out against control, counted positive when it falls – is -5%.

Regarding `C#Cc1cccc(Nc2ncnc3sc(-c4ccc(CO)cc4OC)cc23)c1`, the inhibition worked out at 13%.

For `COc1ccc(C(=O)NCCN(C)C)cc1-c1cc2c(N[C@H](C)c3ccccc3)ncnc2s1`, the inhibition is 0%.

Another data set has as its target Dual specificity mitogen-activated protein kinase kinase 1 (Homo sapiens) (UniProt Q02750). The experiment in a line: Inhibition of MAP2K1 (unknown origin) at 500 nM.
Conditions: not given
Regarding `CN(C)CCNC(=O)c1ccc(-c2cc3c(N[C@H](CO)c4ccccc4)ncnc3s2)cc1`, the inhibition stood at 12%.

For the molecule `C#Cc1cccc(Nc2ncnc3sc(-c4ccc(CO)cc4OC)cc23)c1`, the inhibition came out at 3%.

As for `COc1ccc(C(=O)NCCN(C)C)cc1-c1cc2c(N[C@H](C)c3ccccc3)ncnc2s1`, the inhibition is 3%.

System in the next data set: not listed separately
The experiment in a line: in vitro. Conditions: human, Caco-2.
Description: Efflux ratio of permeability from basolateral to apical side over apical to basolateral side in human Caco2 cells at 10 uM by LC-MS/MS analysis
Turning to `CN(C)CCNC(=O)c1ccc(-c2cc3c(N[C@H](CO)c4ccccc4)ncnc3s2)cc1`, the efflux ratio – broadly, the permeability from basolateral to apical divided by that in the opposite direction, in the common usage – at 10 µM was more than 20.

For the molecule `COc1ccc(C(=O)NCCN(C)C)cc1-c1cc2c(N[C@H](C)c3ccccc3)ncnc2s1`, the efflux ratio at 10 µM was found to be 63.

System in the next data set: not listed separately
The experiment in a line: Half-life in human liver microsomes at 3 uM by LC-MS/MS analysis.
Conditions: not given
Type of data set: ADME.
On to `CN(C)CCNC(=O)c1ccc(-c2cc3c(N[C@H](CO)c4ccccc4)ncnc3s2)cc1`, for which the half-life (commonly the time in which the quantity being followed falls by half) at 3 µM is 1.1 h.

With `COc1ccc(C(=O)NCCN(C)C)cc1-c1cc2c(N[C@H](C)c3ccccc3)ncnc2s1`, the half-life at 3 µM was found to be 1.93 h.

System in another data set: not listed separately
The experiment in a line: Aqueous solubility of compound in 0.01 M PBS buffer at pH 7.4 after 2 hrs by turbidimetric assay. Type of data set: physicochemical.
Conditions: not given
With `CN(C)CCNC(=O)c1ccc(-c2cc3c(N[C@H](CO)c4ccccc4)ncnc3s2)cc1`, the kinetic solubility (commonly the concentration staying in solution when a stock, usually in DMSO, is diluted into the medium) at 2 h worked out at 65 µM (≈ 30 µg/mL).

`COc1ccc(C(=O)NCCN(C)C)cc1-c1cc2c(N[C@H](C)c3ccccc3)ncnc2s1` had a kinetic solubility at 2 h of more than 100 µM.

Another data set has as its target Protein kinase C theta type (Homo sapiens) (UniProt Q04759). The experiment in a line: Inhibition of PRKCQ (unknown origin) at 500 nM.
Conditions: not given
Take `CN(C)CCNC(=O)c1ccc(-c2cc3c(N[C@H](CO)c4ccccc4)ncnc3s2)cc1`: the inhibition is 12%.

As for `C#Cc1cccc(Nc2ncnc3sc(-c4ccc(CO)cc4OC)cc23)c1`, the inhibition was -5%.

For the molecule `COc1ccc(C(=O)NCCN(C)C)cc1-c1cc2c(N[C@H](C)c3ccccc3)ncnc2s1`, the inhibition turned out to be 0%.

For the next data set, the target named is Mitogen-activated protein kinase 14 (Homo sapiens) (UniProt Q16539). The experiment in a line: Inhibition of MAPK14 (unknown origin) at 500 nM.
Conditions: not given
Turning to `CN(C)CCNC(=O)c1ccc(-c2cc3c(N[C@H](CO)c4ccccc4)ncnc3s2)cc1`, the inhibition was found to be 9%.

For the molecule `COc1ccc(C(=O)NCCN(C)C)cc1-c1cc2c(N[C@H](C)c3ccccc3)ncnc2s1`, the inhibition was found to be 8%.

A further data set addresses Angiopoietin-1 receptor (Homo sapiens) (UniProt Q02763). The experiment in a line: Inhibition of TEK (unknown origin) at 500 nM.
Conditions: not given
Turning to `CN(C)CCNC(=O)c1ccc(-c2cc3c(N[C@H](CO)c4ccccc4)ncnc3s2)cc1`, the inhibition was 9%.

Turning to `C#Cc1cccc(Nc2ncnc3sc(-c4ccc(CO)cc4OC)cc23)c1`, the inhibition was -1%.

`COc1ccc(C(=O)NCCN(C)C)cc1-c1cc2c(N[C@H](C)c3ccccc3)ncnc2s1`: the inhibition was -3%.

In a further data set the target is T1, Ephrin type-A receptor 1 (Homo sapiens) (UniProt P21709).
T1 sequence (whole entry): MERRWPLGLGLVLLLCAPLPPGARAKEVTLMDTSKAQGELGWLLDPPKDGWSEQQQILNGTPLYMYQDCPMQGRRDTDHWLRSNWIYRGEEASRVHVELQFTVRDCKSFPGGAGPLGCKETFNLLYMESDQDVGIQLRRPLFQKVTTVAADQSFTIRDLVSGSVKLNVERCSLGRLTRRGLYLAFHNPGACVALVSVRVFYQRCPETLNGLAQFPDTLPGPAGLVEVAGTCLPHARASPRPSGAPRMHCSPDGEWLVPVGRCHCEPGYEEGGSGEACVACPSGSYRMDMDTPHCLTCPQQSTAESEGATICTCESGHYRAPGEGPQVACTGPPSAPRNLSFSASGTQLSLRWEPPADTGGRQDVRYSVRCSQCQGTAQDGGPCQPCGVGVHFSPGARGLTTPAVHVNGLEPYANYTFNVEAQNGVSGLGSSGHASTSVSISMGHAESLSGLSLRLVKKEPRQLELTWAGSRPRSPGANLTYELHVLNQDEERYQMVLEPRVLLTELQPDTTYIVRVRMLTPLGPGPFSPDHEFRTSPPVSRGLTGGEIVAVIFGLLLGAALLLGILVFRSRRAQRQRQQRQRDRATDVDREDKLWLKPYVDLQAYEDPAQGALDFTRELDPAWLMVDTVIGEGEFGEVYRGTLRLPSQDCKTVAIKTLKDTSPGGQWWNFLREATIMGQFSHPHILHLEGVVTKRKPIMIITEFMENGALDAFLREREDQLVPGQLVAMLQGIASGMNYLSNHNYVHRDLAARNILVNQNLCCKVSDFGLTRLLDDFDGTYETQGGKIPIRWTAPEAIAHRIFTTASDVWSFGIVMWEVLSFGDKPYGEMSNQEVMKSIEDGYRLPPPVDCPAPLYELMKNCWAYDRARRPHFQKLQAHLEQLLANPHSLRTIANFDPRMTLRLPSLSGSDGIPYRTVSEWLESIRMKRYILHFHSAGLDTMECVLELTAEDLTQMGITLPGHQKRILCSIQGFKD
The experiment in a line: Inhibition of EPHA1 (unknown origin) at 500 nM.
Conditions: not given
With `CN(C)CCNC(=O)c1ccc(-c2cc3c(N[C@H](CO)c4ccccc4)ncnc3s2)cc1`, the inhibition stood at 15%.

As for `C#Cc1cccc(Nc2ncnc3sc(-c4ccc(CO)cc4OC)cc23)c1`, the inhibition was found to be 2%.

On to `COc1ccc(C(=O)NCCN(C)C)cc1-c1cc2c(N[C@H](C)c3ccccc3)ncnc2s1`, for which the inhibition turned out to be 7%.

Another data set addresses Tyrosine-protein kinase HCK (Homo sapiens) (UniProt P08631). The experiment in a line: Inhibition of HCK (unknown origin) at 500 nM.
Conditions: not given
Consider `CN(C)CCNC(=O)c1ccc(-c2cc3c(N[C@H](CO)c4ccccc4)ncnc3s2)cc1`, for which the inhibition was found to be 15%.

For the molecule `C#Cc1cccc(Nc2ncnc3sc(-c4ccc(CO)cc4OC)cc23)c1`, the inhibition was -4%.

For the molecule `COc1ccc(C(=O)NCCN(C)C)cc1-c1cc2c(N[C@H](C)c3ccccc3)ncnc2s1`, the inhibition amounted to 15%.

The target of another data set is T2, Testis-specific serine/threonine-protein kinase 2 (Homo sapiens) (UniProt Q96PF2).
T2 sequence (whole entry): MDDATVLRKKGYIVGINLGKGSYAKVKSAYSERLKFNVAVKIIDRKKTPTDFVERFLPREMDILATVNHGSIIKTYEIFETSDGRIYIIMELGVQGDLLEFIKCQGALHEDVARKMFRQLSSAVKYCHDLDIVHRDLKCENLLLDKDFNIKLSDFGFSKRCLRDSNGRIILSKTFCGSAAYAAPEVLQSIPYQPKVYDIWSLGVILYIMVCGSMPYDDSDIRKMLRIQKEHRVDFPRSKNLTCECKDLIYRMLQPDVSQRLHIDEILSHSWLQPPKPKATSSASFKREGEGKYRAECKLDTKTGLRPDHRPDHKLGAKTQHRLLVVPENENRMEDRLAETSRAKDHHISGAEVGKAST
The experiment in a line: Inhibition of STK22B (unknown origin) at 500 nM.
Conditions: not given
Consider `CN(C)CCNC(=O)c1ccc(-c2cc3c(N[C@H](CO)c4ccccc4)ncnc3s2)cc1`, for which the inhibition was found to be 1%.

As to `C#Cc1cccc(Nc2ncnc3sc(-c4ccc(CO)cc4OC)cc23)c1`, the inhibition worked out at 2%.

As to `COc1ccc(C(=O)NCCN(C)C)cc1-c1cc2c(N[C@H](C)c3ccccc3)ncnc2s1`, the inhibition is 0%.

For a further data set, the target named is Glycogen synthase kinase-3 beta (Homo sapiens) (UniProt P49841). The experiment in a line: Inhibition of GSK3B (unknown origin) at 500 nM.
Glycogen synthase kinase-3 beta (Homo sapiens), sequence (P49841 whole entry, looked up): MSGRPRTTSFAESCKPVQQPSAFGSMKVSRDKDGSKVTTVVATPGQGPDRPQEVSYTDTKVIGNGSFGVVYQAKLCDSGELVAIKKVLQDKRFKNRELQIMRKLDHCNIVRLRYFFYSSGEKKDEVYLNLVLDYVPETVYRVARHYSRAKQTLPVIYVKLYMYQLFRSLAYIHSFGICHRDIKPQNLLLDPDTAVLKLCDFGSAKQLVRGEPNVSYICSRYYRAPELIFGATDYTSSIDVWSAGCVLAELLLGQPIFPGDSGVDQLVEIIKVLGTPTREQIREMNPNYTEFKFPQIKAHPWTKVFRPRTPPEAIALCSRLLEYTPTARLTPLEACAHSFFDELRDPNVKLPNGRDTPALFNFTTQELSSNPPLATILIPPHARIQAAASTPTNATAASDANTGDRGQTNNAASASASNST
Conditions: not given
Take `CN(C)CCNC(=O)c1ccc(-c2cc3c(N[C@H](CO)c4ccccc4)ncnc3s2)cc1`: the inhibition was determined as 3%.

`C#Cc1cccc(Nc2ncnc3sc(-c4ccc(CO)cc4OC)cc23)c1`: the inhibition was 8%.

As to `COc1ccc(C(=O)NCCN(C)C)cc1-c1cc2c(N[C@H](C)c3ccccc3)ncnc2s1`, the inhibition was determined as 13%.

The target in the next data set is Receptor tyrosine-protein kinase erbB-2 (Homo sapiens) (UniProt P04626). The experiment in a line: Inhibition of ERBB2 (unknown origin) at 500 nM.
Receptor tyrosine-protein kinase erbB-2 (Homo sapiens), sequence (P04626 whole entry): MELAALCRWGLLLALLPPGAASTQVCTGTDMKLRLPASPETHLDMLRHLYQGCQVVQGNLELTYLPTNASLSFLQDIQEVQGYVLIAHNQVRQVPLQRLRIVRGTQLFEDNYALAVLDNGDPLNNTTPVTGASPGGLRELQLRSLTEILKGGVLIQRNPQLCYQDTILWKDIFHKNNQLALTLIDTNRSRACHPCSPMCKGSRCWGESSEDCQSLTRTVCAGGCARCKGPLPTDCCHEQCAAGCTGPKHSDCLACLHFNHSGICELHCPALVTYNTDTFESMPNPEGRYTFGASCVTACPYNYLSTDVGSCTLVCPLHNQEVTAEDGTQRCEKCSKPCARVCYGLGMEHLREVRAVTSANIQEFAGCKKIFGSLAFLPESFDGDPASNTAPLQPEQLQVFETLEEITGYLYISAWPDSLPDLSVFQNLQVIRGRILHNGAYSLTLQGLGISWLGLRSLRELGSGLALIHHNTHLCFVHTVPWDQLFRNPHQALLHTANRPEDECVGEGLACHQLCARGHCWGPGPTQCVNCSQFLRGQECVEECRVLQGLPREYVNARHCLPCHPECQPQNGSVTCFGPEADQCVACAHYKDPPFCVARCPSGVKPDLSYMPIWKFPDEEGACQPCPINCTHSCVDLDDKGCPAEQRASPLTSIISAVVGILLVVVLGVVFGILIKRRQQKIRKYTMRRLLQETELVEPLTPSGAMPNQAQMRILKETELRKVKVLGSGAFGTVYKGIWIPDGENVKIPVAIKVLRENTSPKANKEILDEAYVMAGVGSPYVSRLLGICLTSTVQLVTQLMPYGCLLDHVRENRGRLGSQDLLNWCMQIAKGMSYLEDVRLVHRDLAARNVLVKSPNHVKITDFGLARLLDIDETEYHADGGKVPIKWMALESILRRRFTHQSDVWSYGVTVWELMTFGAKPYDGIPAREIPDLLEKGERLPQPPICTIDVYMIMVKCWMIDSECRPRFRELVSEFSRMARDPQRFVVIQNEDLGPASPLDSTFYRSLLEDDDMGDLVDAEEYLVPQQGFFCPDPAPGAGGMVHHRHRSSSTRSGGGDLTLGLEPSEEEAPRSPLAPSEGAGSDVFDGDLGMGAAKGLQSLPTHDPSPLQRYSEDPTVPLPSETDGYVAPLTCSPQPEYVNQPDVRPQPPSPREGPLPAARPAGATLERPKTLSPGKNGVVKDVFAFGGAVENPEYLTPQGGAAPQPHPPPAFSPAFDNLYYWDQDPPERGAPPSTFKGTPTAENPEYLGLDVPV
Conditions: not given
`CN(C)CCNC(=O)c1ccc(-c2cc3c(N[C@H](CO)c4ccccc4)ncnc3s2)cc1`: the inhibition was determined as 54%.

As to `C#Cc1cccc(Nc2ncnc3sc(-c4ccc(CO)cc4OC)cc23)c1`, the inhibition stood at 19%.

Regarding `COc1ccc(C(=O)NCCN(C)C)cc1-c1cc2c(N[C@H](C)c3ccccc3)ncnc2s1`, the inhibition was found to be 63%.

Source of the values: ChEMBL document CHEMBL3758163, “Extended structure-activity study of thienopyrimidine-based EGFR inhibitors with evaluation of drug-like properties” (Eur J Med Chem, 2016).
